Assay results taken from ChEMBL document CHEMBL3739257, “Aryl amide small-molecule inhibitors of microRNA miR-21 function” (Bioorg Med Chem Lett, 2015).
Activity calls are given as the source filed them. The rule behind the calls is not given here.

How the values were obtained:
[1] = system: HeLa; assay: Inhibition of microRNA miR-21 expression in human HeLa cells assessed as reduction of intracellular miR-21 level by measuring luciferase signal relative to control; format: cell-based
[2] = system: HeLa; assay: Inhibition of miR-17-5p expression in human HeLa cells at 10 uM after 48 hrs by qRT-PCR analysis; format: functional, cell-based
[3] = system: HeLa; assay: Inhibition of miR-222 expression in human HeLa cells at 10 uM after 48 hrs by qRT-PCR analysis; format: functional, cell-based
[4] = system: HeLa; assay: Inhibition of miR-21 expression in human HeLa cells at 10 uM after 48 hrs by qRT-PCR analysis; format: functional
[5] = system: Lampyridae; assay: Inhibition of firefly luciferase at 10 uM preincubated for 1 hr followed by ATP addition measured after 3 mins by CellTiter-Glo assay
[6] = system: Huh-7; assay: Inhibition of microRNA miR-122 expression in human Huh7-psiCHECK cells assessed as luciferase expression at 10 uM after 48 hrs by microplate reader analysis; format: cell-based
[7] = system: HeLa; assay: Inhibition of microRNA miR-21 expression in human HeLa cells assessed as luciferase signal at 10 uM after 48 hrs by microplate reader analysis relative to control; format: cell-based
[8] = system: HeLa; assay: Inhibition of microRNA miR-21P transfected in human HeLa cells assessed as luciferase signal at 10 uM; format: cell-based
[9] = system: HeLa; assay: Inhibition of primary microRNA miR-21 expression in human HeLa cells assessed as luciferase signal at 10 uM by qRT-PCR analysis relative to control; format: cell-based
[10] = system: HeLa; assay: Inhibition of miR-125b expression in human HeLa cells at 10 uM after 48 hrs by qRT-PCR analysis; format: functional, cell-based
[11] = Inhibition of microRNA miR-21 expression in human HeLa cells assessed as luciferase signal at 10 uM after 48 hrs by microplate reader analysis; format: cell-based

With `COc1ccc(C(=O)NCc2ccccc2)cc1` the fold change (FC) [1] was 1.43.
With `O=C(NCCC1=CCCCC1)c1cccc(O)c1` the fold change (FC) [1] was 1.61.
`COc1ccc(C(=O)NCCc2ccccc2)cc1` gave a fold change (FC) [1] of 0.5.
Compound `O=C(NCCc1ccccc1)c1ccc(Oc2ccccc2)cc1` has a fold change (FC) [1] of 1.4.
For `COc1ccc(C(N)=O)cc1`, the fold change (FC) [1] was 1.11.
`COc1ccc(C(=O)NCCC2CCCCC2)cc1O` gave a fold change (FC) [1] of 1.93.
In the case of `COc1ccc(C(=O)NCCc2ccc3ccccc3c2)cc1`, the fold change (FC) [1] is reported as 1.41.
For `C=CCNC(=O)c1ccc(OC)cc1`, the fold change (FC) [1] was 1.28.
For `COc1ccc(NC(=O)c2ccc(OC)cc2)cc1`, the inhibition [2] was “inactive”, the inhibition [3] was “inactive” and the fold change (FC) [1] was 2.88. The inhibition at 10 µM [4] was 61%, the inhibition [5] was “inactive” and the inhibition [6] was “inactive”. The inhibition [7] was > 100%, the inhibition [8] was “inactive” and the inhibition [9] was “inactive”. The inhibition [10] was “inactive” and the EC50 [11] was 0.86 µM.
Work on `CCOc1ccc(C(=O)NCCc2ccccc2)cc1` yielded a fold change (FC) [1] of 1.56.
`COc1ccc(C(=O)NCCC2=CCCCC2)cc1OC(C)=O` showed a fold change (FC) [1] of 1.83.
For `Nc1ccc(C(=O)NCCc2ccccc2)cc1`, the fold change (FC) [1] was 1.46.
For `CCCNC(=O)c1ccc(OC)c(O)c1`, the fold change (FC) [1] was 1.11.
`COc1ccc(C(=O)NCCC2=CCCCC2)cc1O` gave a fold change (FC) [1] of 1.63.
With `COc1ccc(C(=O)NCCc2ccccn2)cc1` the fold change (FC) [1] was 1.
For `O=C(NCCC1=CCCCC1)c1ccccc1`, the fold change (FC) [1] was 1.58.
With `COc1ccc(C(=O)Nc2ccccc2)cc1` the inhibition [2] was “inactive”, the inhibition [3] was “inactive” and the fold change (FC) [1] was 2.39. For the same compound, the inhibition at 10 µM [4] was 43%, the inhibition [5] was “inactive” and the inhibition [8] was “inactive”. The inhibition [9] was “inactive”, the inhibition [10] was “inactive” and the EC50 [11] was 2.3 µM.
For `O=C(Nc1ccccc1)c1ccccc1`, the fold change (FC) [1] was 1.49.
With `COc1ccc(C(=O)NCCC2=CCCCC2)cc1OC` the inhibition [2] was “inactive”, the inhibition [3] was “inactive” and the fold change (FC) [1] was 2.01. The inhibition at 10 µM [4] was 17%, the inhibition [5] was “inactive” and the inhibition [6] was “inactive”. For the same compound, the inhibition [7] was > 100%, the inhibition [8] was “inactive” and the inhibition [9] was “inactive”. For the same compound, the inhibition [10] was “inactive” and the EC50 [11] was 10.8 µM.
In the case of `O=C(NCCC1=CCCCC1)c1ccc(O)cc1`, the fold change (FC) [1] is reported as 1.66.
In the case of `COc1ccc(C(=O)NCCCc2ccccc2)cc1`, the fold change (FC) [1] is reported as 1.94.
In the case of `COc1ccc(C(=O)NCCCCc2ccccc2)cc1`, the fold change (FC) [1] is reported as 1.03.
For `CCCOc1ccc(C(=O)NCCc2ccccc2)cc1`, the fold change (FC) [1] was 1.36.
In the case of `O=C(NCCC1=CCCCC1)c1ccc(O)c(O)c1`, the inhibition [2] is reported as “inactive”, the inhibition [3] is reported as “inactive” and the fold change (FC) [1] is reported as 2.22. For the same compound, the inhibition at 10 µM [4] was 42%, the inhibition [5] was “inactive” and the inhibition [6] was “inactive”. For the same compound, the inhibition [7] was > 100%, the inhibition [8] was “inactive” and the inhibition [9] was “inactive”. For the same compound, the inhibition [10] was “inactive” and the EC50 [11] was 6.1 µM.
Compound `COc1ccc(C(=O)NCCc2ccccc2)cc1O` has a fold change (FC) [1] of 0.95.
With `COc1ccc(C(=O)NCCC2=CCCCC2)cc1` the fold change (FC) [1] was 1.05.
`COc1ccc(C(=O)NCCC2=CCCCC2)cc1OC1CCN(C(C)C)CC1` gave a fold change (FC) [1] of 1.36.
With `COc1ccc(C(=O)Nc2ccc3ccccc3c2)cc1` the fold change (FC) [1] was 1.21, the inhibition [6] was “inactive” and the inhibition [7] was > 100%.
